2 molecules from ChEMBL document CHEMBL3352200, “Thio-sugar motif of functional CARB-pharmacophore for antineoplastic activity. Part 2” (Bioorg Med Chem Lett, 2014) can be followed below.

Each structure is given as a SMILES string.

Series [1] has as its system MCF7. The series is described as follows: Cytotoxicity against human MCF7 cells after 14 hrs by CCK-8 assay. It is filed as functional, cell-based. Conditions: MCF7, 14 h. On the technique in general: Tetrazolium assays rely on reduction of a dye to a coloured formazan, in cell work by metabolically active cells.
Series [2] has as its system MCF7. The series is described as follows: Induction of apoptosis in human MCF7 cells assessed as viable cells at 17 uM after 4 hrs by FITC Annexin-V/propidium iodide staining-based flow cytometry (reference value: 70.40%). The format is functional. The settings on record: MCF7, 4 h, read-out: Activity.
Series [3] concerns MCF7. As to the kind of experiment: Induction of apoptosis in human MCF7 cells assessed as apoptotic cells at 17 uM after 4 hrs by FITC Annexin-V/propidium iodide staining-based flow cytometry (reference value: 29.60%). It is filed as functional.
In series [4] the test system is LoVo. The series is described as follows: Cytotoxicity against human LoVo cells after 14 hrs by CCK-8 assay. It is filed as functional, cell-based.
The test system of series [5] is A549. The series is described as follows: Induction of apoptosis in human A549 cells assessed as apoptotic cells at 275 uM after 4 hrs by FITC Annexin-V/propidium iodide staining-based flow cytometry (reference value: 15.60%). The format is functional. A general note: In flow cytometry, cells or beads pass a laser one at a time.
For series [6], the system named is MCF7. The series is described as follows: Induction of apoptosis in human MCF7 cells assessed as apoptotic cells at 137 uM after 4 hrs by FITC Annexin-V/propidium iodide staining-based flow cytometry (reference value: 29.60%). It is filed as functional.
Series [7] can be described thus: Lipophilicity, log P of the compound. Conditions: octanol/water. The format is physicochemical.
Series [8] deals with A549. The series is described as follows: Cytotoxicity against human A549 cells after 14 hrs by CCK-8 assay. The format is functional, cell-based. The settings on record: A549, 14 h.
In series [9] the test system is MCF7. The series is described as follows: Induction of apoptosis in human MCF7 cells assessed as viable cells at 137 uM after 4 hrs by FITC Annexin-V/propidium iodide staining-based flow cytometry (reference value: 70.40%). Conditions: MCF7, 4 h, read-out: Activity. It is filed as functional.
Series [10] concerns LoVo. As to the kind of experiment: Induction of apoptosis in human LoVo cells assessed as apoptotic cells at 69 uM after 4 hrs by FITC Annexin-V/propidium iodide staining-based flow cytometry (reference value: 20.50%). It is filed as functional.
Series [11] deals with HeLa. The series is described as follows: Induction of apoptosis in human HeLa cells assessed as viable cells at 137 uM after 4 hrs by FITC Annexin-V/propidium iodide staining-based flow cytometry (reference value: 87.00%). The settings on record: read-out: Activity. The format is functional.
The subject of series [12] is LoVo. The series is described as follows: Induction of apoptosis in human LoVo cells assessed as viable cells at 69 uM after 4 hrs by FITC Annexin-V/propidium iodide staining-based flow cytometry (reference value: 79.50%). Conditions: read-out: Activity. It is filed as functional.
Series [13] deals with HeLa. As to the kind of experiment: Cytotoxicity against human HeLa cells after 14 hrs by CCK-8 assay. The format is functional, cell-based.
Series [14] is described as follows: Cytotoxicity against human PNT2 cells at 8.6 to 2200 uM after 14 hrs by CCK-8 assay. The format is cell-based. The settings on record: pnt2, 14 h.
Series [15] has as its system HeLa. As to the kind of experiment: Induction of apoptosis in human HeLa cells assessed as apoptotic cells at 17 uM after 4 hrs by FITC Annexin-V/propidium iodide staining-based flow cytometry (reference value: 13.00%). The format is functional.
Series [16] concerns A549. As to the kind of experiment: Induction of apoptosis in human A549 cells assessed as viable cells at 275 uM after 4 hrs by FITC Annexin-V/propidium iodide staining-based flow cytometry (reference value: 84.40%). It is filed as functional. The settings on record: A549, 4 h, read-out: Activity.
The subject of series [17] is A549. As to the kind of experiment: Induction of apoptosis in human A549 cells assessed as viable cells at 34 uM after 4 hrs by FITC Annexin-V/propidium iodide staining-based flow cytometry (reference value: 84.40%). The format is functional. Conditions: A549, 4 h, read-out: Activity.
For series [18], the system named is LoVo. As to the kind of experiment: Induction of apoptosis in human LoVo cells assessed as viable cells at 550 uM after 4 hrs by FITC Annexin-V/propidium iodide staining-based flow cytometry (reference value: 79.50%). The format is functional. The settings on record: read-out: Activity.
For series [19], the system named is HeLa. As to the kind of experiment: Induction of apoptosis in human HeLa cells assessed as apoptotic cells at 137 uM after 4 hrs by FITC Annexin-V/propidium iodide staining-based flow cytometry (reference value: 13.00%). It is filed as functional.
Series [20] concerns LoVo. As to the kind of experiment: Induction of apoptosis in human LoVo cells assessed as apoptotic cells at 550 uM after 4 hrs by FITC Annexin-V/propidium iodide staining-based flow cytometry (reference value: 20.50%). The format is functional.
Series [21] deals with A549. As to the kind of experiment: Induction of apoptosis in human A549 cells assessed as apoptotic cells at 34 uM after 4 hrs by FITC Annexin-V/propidium iodide staining-based flow cytometry (reference value: 15.60%). The format is functional.
Series [22] concerns HeLa. As to the kind of experiment: Induction of apoptosis in human HeLa cells assessed as viable cells at 17 uM after 4 hrs by FITC Annexin-V/propidium iodide staining-based flow cytometry (reference value: 87.00%). Conditions: read-out: Activity. The format is functional.
Series [23] deals with MCF7. As to the kind of experiment: Induction of apoptosis in human MCF7 cells assessed as apoptotic cells at 34 uM after 4 hrs by FITC Annexin-V/propidium iodide staining-based flow cytometry (reference value: 29.60%). It is filed as functional.
Series [24] has as its system A549. The series is described as follows: Induction of apoptosis in human A549 cells assessed as viable cells at 17 uM after 4 hrs by FITC Annexin-V/propidium iodide staining-based flow cytometry (reference value: 84.40%). It is filed as functional. Conditions: A549, 4 h, read-out: Activity.
For series [25], the system named is LoVo. As to the kind of experiment: Induction of apoptosis in human LoVo cells assessed as apoptotic cells at 34 uM after 4 hrs by FITC Annexin-V/propidium iodide staining-based flow cytometry (reference value: 20.50%). The format is functional.
For series [26], the system named is A549. As to the kind of experiment: Induction of apoptosis in human A549 cells assessed as apoptotic cells at 137 uM after 4 hrs by FITC Annexin-V/propidium iodide staining-based flow cytometry (reference value: 15.60%). It is filed as functional.
The subject of series [27] is MCF7. The series is described as follows: Induction of apoptosis in human MCF7 cells assessed as viable cells at 34 uM after 4 hrs by FITC Annexin-V/propidium iodide staining-based flow cytometry (reference value: 70.40%). It is filed as functional. The settings on record: MCF7, 4 h, read-out: Activity.
In series [28] the test system is A549. As to the kind of experiment: Induction of apoptosis in human A549 cells assessed as apoptotic cells at 17 uM after 4 hrs by FITC Annexin-V/propidium iodide staining-based flow cytometry (reference value: 15.60%). It is filed as functional.
Series [29] relates to LoVo. The series is described as follows: Induction of apoptosis in human LoVo cells assessed as apoptotic cells at 275 uM after 4 hrs by FITC Annexin-V/propidium iodide staining-based flow cytometry (reference value: 20.50%). The format is functional.
Series [30] concerns MCF7. The series is described as follows: Induction of apoptosis in human MCF7 cells assessed as apoptotic cells at 275 uM after 4 hrs by FITC Annexin-V/propidium iodide staining-based flow cytometry (reference value: 29.60%). It is filed as functional.
In series [31] the test system is LoVo. As to the kind of experiment: Induction of apoptosis in human LoVo cells assessed as viable cells at 275 uM after 4 hrs by FITC Annexin-V/propidium iodide staining-based flow cytometry (reference value: 79.50%). The settings on record: read-out: Activity. The format is functional.
For series [32], the system named is MCF7. The series is described as follows: Induction of apoptosis in human MCF7 cells assessed as viable cells at 275 uM after 4 hrs by FITC Annexin-V/propidium iodide staining-based flow cytometry (reference value: 70.40%). It is filed as functional. The settings on record: MCF7, 4 h, read-out: Activity.
Series [33] has as its system A549. The series is described as follows: Induction of apoptosis in human A549 cells assessed as viable cells at 137 uM after 4 hrs by FITC Annexin-V/propidium iodide staining-based flow cytometry (reference value: 84.40%). Conditions: A549, 4 h, read-out: Activity. The format is functional.
Series [34] concerns LoVo. As to the kind of experiment: Induction of apoptosis in human LoVo cells assessed as viable cells at 34 uM after 4 hrs by FITC Annexin-V/propidium iodide staining-based flow cytometry (reference value: 79.50%). The settings on record: read-out: Activity. It is filed as functional.

For the molecule `O=C(O)c1ccccc1S[C@H]1CC(=O)[C@@H]2OC[C@H]1O2`, the IC50 – broadly, the concentration that gives 50% inhibition – in the series on MCF7 [1] amounted to 218 µM; in the series on LoVo [4], 641 µM; with A549 [8] it was 311 µM; in the series with HeLa [13], 434 µM. The viability at 17 µM is 60.9% in the series with MCF7 [2] and 75.5% in the series on HeLa [22]. Further, the Activity in the series with MCF7 [3] worked out at 39.1%; in the series with A549 [5], 37.84%; with MCF7 [6], 62.5%; in the series on LoVo [10], 29.1%; in series [14], 10%; in the series on HeLa [15], 24.5%. For the same molecule, the Activity in the series with HeLa [19] was 25.8%; in the series on LoVo [20] it was 62.2%; in the series on A549 [21], 27.4%. Further, the logP (usually the decadic logarithm of the partition coefficient of the neutral form, usually between octanol and water) in series [7] is 1.28. Further, the viability at 137 µM in the series on MCF7 [9] was 37.5%; in the series on HeLa [11], 74.2%. For the same molecule, in the series on LoVo [12], the viability at 69 µM stood at 70.9%. Also, the viability at 275 µM in the series with A549 [16] stood at 62.2%. In the series with A549 [17], the viability at 34 µM was determined as 72.6%. Further, the viability at 550 µM in the series with LoVo [18] came out at 37.8%.
In the case of `CC(=O)OC[C@H]1O[C@@H](S[C@H]2CC(=O)[C@@H]3OC[C@H]2O3)[C@H](OC(C)=O)[C@@H](OC(C)=O)[C@H]1OC(C)=O`, the Activity in the series with MCF7 [23] was 42.2%; in the series with LoVo [25] it was 34.9%; in the series with A549 [26], 21.9%; in the series with A549 [28], 29%; in the series on LoVo [29], 30%; in [14], 10%. Moreover, the Activity in the series with MCF7 [30] came to 19.2%; with HeLa [15] it was 25.9%; with HeLa [19], 62.8%. Moreover, the IC50 in the series on MCF7 [1] worked out at 344 µM; with LoVo [4] it was 624 µM; in the series on A549 [8], 467 µM; in the series on HeLa [13], 676 µM. Also, the viability at 17 µM in the series with A549 [24] was 71%; in the series with HeLa [22], 74.1%. Moreover, the lipophilicity (logP) in series [7] is -1.13. In addition, the viability at 137 µM with HeLa [11] was found to be 37.2%; with A549 [33], 78.1%. Further, the viability at 34 µM amounted to 57.8% with MCF7 [27] and 65.1% in the series with LoVo [34]. The viability at 275 µM in the series with LoVo [31] is 70%; in the series on MCF7 [32], 80.8%.
